Assay results: article PMC12040169 (PLOS Biology, 2025)

Test: in vitro
Settings: human, hela cells, % viability

SMILES	viability at 28.5 h, 10 µM [%]
O=c1[nH]c(=O)c2cc(S(=O)(=O)NC3CCN(Cc4ccccc4)C3)ccc2[nH]1 (centres unmarked) [CBK286380]	109
O=C(CNC(=O)c1ccccc1)OCC(=O)c1ccc(Cl)c(Cl)c1 [CBK261611]	93.9
CN1CCCN(c2cncc(-c3cccc(OC(F)(F)F)c3)n2)CC1 [CBK065949]	102
O=c1nc2c(cn1[C@H]1C[C@@H](O)[C@@H](CO)O1)Sc1ccccc1N2 [CBK201237]	100
Clc1cncc(-c2ccccc2)n1 [CBK113371]	93.8
CC(O)CNCCCOc1ccccc1-c1ccccc1 (centres unmarked) [CBK268633G]	97.6
COc1cccc(-c2csc(N3CCN(C(=O)Nc4ccccc4)CC3)n2)c1 [CBK070275]	95.4
CCc1nn(CC(=O)N2CCCC2)c(=O)c2cc3ccsc3n12 [CBK284120]	84.2
Cc1cc(C)cc(NC(=O)CSc2ncnc3c2oc2ccccc23)c1 [CBK287394]	90.5
COc1ccc(SCC(=O)Nc2nccs2)cc1 [CBK287751]	83.4
O=C(/C=C/c1cccc([N+](=O)[O-])c1)Nc1ccc(Cl)c(-c2nc3ccccc3o2)c1 [CBK264610]	102
CCOc1ccc(C(=O)C2=C(O)C(=O)N(CCN(C)C)C2c2ccc(N(C)C)cc2)c(C)c1 (centres unmarked) [CBK264603]	110
Clc1cc(N2CCCC2)ncn1 [CBK083597]	99.2
CC(C)N1CCCC(CNC(=O)c2cc(C3CCCCC3)no2)C1 (centres unmarked) [CBK283294]	97.2
O=C(CCCc1ccccc1)Nc1scc2c(=O)oc3ccccc3c12 [CBK265435]	90.1
OC1(CN2CCCC2)COCCN(c2nnc(-c3ccccc3)s2)C1 (centres unmarked) [CBK306558]	97.5
O=C(O)C1=CC(c2ccc(O)cc2)n2ncnc2N1 (centres unmarked) [CBK286545]	88.7
CCOC(=O)c1cnn(C2CCCN(Cc3ccsc3)C2)c1 (centres unmarked) [CBK305112]	94.9
CC(C)c1ccc(S(=O)(=O)N2CCN(c3ncnc4c3oc3ccccc34)CC2)cc1 [CBK296936]	84.9
CCC(C)NC1=NC(=O)C(CC(=O)N(C)c2ccccc2)S1 (centres unmarked) [CBK059110T]	83.3
Cc1ccc(S(=O)(=O)N2/C(=C\COc3ccc(Cl)cc3Cl)C(N3CCOCC3)c3ccccc32)cc1 (centres unmarked) [CBK262740]	87.6
Cc1noc(C)c1C(=O)N1CCC2(CC1)CC(=O)c1cc(Br)ccc1O2 [CBK156508]	90
CC(C)COC(=O)n1ccc(C(=O)N2CCCCC2)n1 [CBK058828]	84.9

SMILES	viability at 28.5 h, 10 µM [%]
CC(C)(O)C#Cc1ccc(C(=O)N2CCCC2C(=O)O)s1 (centres unmarked) [CBK286869]	79.5
Cc1cc(C(F)F)n2nc(C(=O)NCc3ccccc3F)nc2n1 [CBK266228]	97.2
COc1cc(C(=O)N2CCC3(CC2)NC(=O)c2cc(C)ccc2O3)cc(OC)c1C [CBK166273]	91
Cn1c2ccccc2c2ncn(CCS)c(=O)c21 [CBK288412]	114
Cc1nc(S(=O)(=O)CCn2cccn2)n(C2CCCCC2)c1C [CBK305217]	102
Cn1nccc1CN(Cc1ccc(F)cc1)Cc1cccnc1 [CBK282261]	101
O=C(O)CCn1cc(CN2CCOc3ccccc3C2)cn1 [CBK306507]	101
CC(=O)Nc1ccc(-c2cncc(NC(C)CCCC(C)(C)O)n2)cc1 (centres unmarked) [CBK065894]	91.1
O=C(Nc1ccccc1C(=O)N1CCN(Cc2ccccc2)CC1)c1ccc(F)cc1 [CBK264948]	99.3
N#Cc1ccc(CN2CCCN(S(=O)(=O)c3ccc(C(F)(F)F)cc3Cl)CC2)cc1 [CBK062939]	98
COc1cccc(NC(=O)CN(c2ccccc2)S(=O)(=O)c2ccc(Cl)cc2)c1 [CBK265366]	102
COc1ccccc1Cc1cccc(C2CCN(C(=O)Cc3ccccc3)CC2)n1 [CBK286240]	88.1
Cc1ccc(C(=O)NCCC(=O)Nc2ccccn2)cc1NC(=O)c1ccco1 [CBK298328]	92.2
COCCCn1c(=O)[nH]c2ncc(-c3cccc(CO)c3)nc21 [CBK065104]	99.4
Cc1nccn1-c1ccc(NC(=O)C2CC(=O)N(C3CCCC3)C2)cc1F (centres unmarked) [CBK298286]	83.1
Cc1ccc(S(N)(=O)=O)cc1NC(=O)Cc1ccccc1 [CBK024413]	86.7
CCOC(=O)CNS(=O)(=O)c1cccc2cccnc12 [CBK034440]	115
COc1cncc(-c2ccc(N3CCN(c4ccccc4C#N)CC3)nc2)c1 [CBK037738]	107
O=[N+]([O-])c1cc(/C=N/Nc2nc(N3CCOCC3)nc(N3CCOCC3)n2)c(O)c([N+](=O)[O-])c1 [CBK261237]	105
CC1(C)CC(N2CNC(=N)N(C#N)C2)CC(C)(C)N1 [CBK262008]	90.7
Cc1ccc2c(c1)C1(CC(=O)N(C)C1=O)C(=O)N2CCOc1cccc2c1OCCO2 (centres unmarked) [CBK075529]	99.6
O=C(O)CCn1c(CO)nc2ccccc21 [CBK111473]	115
CCCCN1CCC(CNc2nccc3sc(S(=O)(=O)NC4CCC4)cc23)CC1 [CBK038275C]	95.9

SMILES	viability at 28.5 h, 10 µM [%]
Cc1cccc(C)c1NC(=O)c1nccnc1C(=O)O [CBK260915]	97
Cn1c(=O)oc2ccccc2c1=O [CBK015658]	100
CC(Sc1ccc(Br)c2cccc(C(=O)O)c12)C(=O)O (centres unmarked) [CBK266226]	97.4
CSCCOc1nccnc1N1CCCC1 [CBK115757]	120
CC(C)N(Cc1nc(-c2ccc(Cl)cc2)no1)S(=O)(=O)c1cccc([N+](=O)[O-])c1 [CBK267050]	83.6
O=[N+]([O-])c1ccc2c(c1)C(N1CCOCC1)/C(=C/C1(O)CCCCC1)O2 (centres unmarked) [CBK263200]	103
COc1ccc(C(=O)Nc2ccc(CC(=O)O)cc2)cc1 [CBK269736]	95
CCn1c(CN2CC(C)CC(C)C2)nc2c1c(=O)n(C)c(=O)n2C (centres unmarked) [CBK306030]	84.4
NC(=O)c1c(NC(=O)Cn2ccc([N+](=O)[O-])n2)sc2c1CCCC2 [CBK269139]	113
Fc1ccccc1CN(CCCn1ccnc1)Cc1ccncc1 [CBK282981]	102
CC(CC(=O)NC1(C#Cc2nccs2)CCCCC1)n1ccnc1 (centres unmarked) [CBK284746]	99.5
C=Cn1cc(CN2C3CCC2CC(O)(c2ccc(F)cc2)C3)c(C)n1 (centres unmarked) [CBK282742]	80.6
CS(=O)(=O)c1ccc(CNC(=O)c2ccccc2Nc2cccc(C(F)(F)F)c2)cc1 [CBK149580]	92
c1ccc(Oc2cccc(CN3CCN(c4ccccn4)CC3)c2)cc1 [CBK261523]	102
CCCc1nnc(NC(=O)CN2CCc3c(c(CO)nn3C)C2)s1 [CBK307172]	98.4
CCc1nn(CC(=O)NC2CCC2)c(=O)c2cc3sc(C)cc3n12 [CBK284142]	92.4
CC(=O)c1ccc(NC(=O)Cn2cnc3c(sc4ncccc43)c2=O)cc1 [CBK287773]	95.4
CN1CCCN(c2cncc(-c3cccnc3)n2)CC1 [CBK037215]	92.9
CN(C)Cc1ccc2nc(C(F)(F)F)cc(SCCC(=O)O)c2c1 [CBK149715T]	91.4
CCCNC(=O)Cn1cnc2sc(C(=O)Nc3ccc(OCC)cc3)c(C)c2c1=O [CBK071920]	91.2
NC(=O)c1cccc(OCCOc2nccnc2N2CCNCC2)c1 [CBK014338G]	114
CC(=O)NCCC1CCN(c2nc(C(C)(C)C)nc3c2cnn3C)CC1 [CBK307364]	96.7
CC(=O)NC(CCC(N)=O)C(=O)N1CC2(CCCC2)c2c(F)cccc21 (centres unmarked) [CBK306412]	82.9

SMILES	viability at 28.5 h, 10 µM [%]
O=C(O)Cn1nnc(-c2ccc(OCc3cccc(C(F)(F)F)c3)cc2)n1 [CBK267034]	97.7
Fc1ccc(CN2CC3CCCC(C2)C3N2CCOCC2)cc1F (centres unmarked) [CBK282270]	95.8
CCN1C(=O)C2(CC(=O)N(CC(=O)OC)C2=O)c2cc(Cl)ccc21 (centres unmarked) [CBK075234]	93.7
COc1ccc(CCNC(=O)c2cnoc2-c2ccc(C)cc2)cc1 [CBK153731]	119
O=c1[nH]c(=O)n(Cc2cccnc2)c2nc[nH]c12 [CBK291260]	111
Clc1ccccc1CSc1nnc2c(n1)OC=Nc1ccccc1-2 [CBK265085]	99.1
O=C(COc1ccc([N+](=O)[O-])cc1)Nc1ccc2oc(-c3ccc(Br)cc3)nc2c1 [CBK263444]	106
Cc1cc(O)nc(SCC(=O)Nc2cc([N+](=O)[O-])ccc2C)n1 [CBK267488]	97.9
CCC(CO)Nc1cncc(-c2ccc(C(N)=O)cc2)n1 (centres unmarked) [CBK065577]	100
CN1CCC[C@H]1C(=O)N1CCN(C(=O)c2ccco2)CC1 [CBK144449]	94.5
COc1ccc(CCNC(=O)C2CCCN(S(=O)(=O)c3ccc4ccccc4c3)C2)cc1 (centres unmarked) [CBK269601]	101
C[C@H](Nc1cncc(-c2cccc(CO)c2)n1)c1ccccc1 [CBK065512]	102
O=C(Cn1cccn1)NC(Cc1ccsc1)c1cccnc1 (centres unmarked) [CBK285396]	97
CC(NS(=O)(=O)c1ccccc1)C(=O)Nc1ccc(S(N)(=O)=O)cc1 (centres unmarked) [CBK266929]	110
Cc1cc(OCC(=O)N2CCNC(=O)C2)c2c(C)c(C)c(=O)oc2c1 [CBK307624]	94.7
Nc1nonc1-c1nc2ccccc2n1CC(=O)NCc1ccccc1 [CBK264711]	92.1
CC(C)(C)COC(=O)N1CCC(N2CCOc3ccc(-c4ccc(S(C)(=O)=O)cc4)cc3C2)CC1 [CBK169264]	83
Cc1noc(C2(O)CCN(CCc3ccc(F)c(F)c3)C2)n1 (centres unmarked) [CBK304753]	93.9
Nc1cc2c(cc1Cl)C(=O)NC2=O [CBK028783]	101
Cc1cc(NS(=O)(=O)c2ccccc2Br)n(C)n1 [CBK067376]	102
